# Reference: ChEMBL document CHEMBL3272066, “Synthesis of nitrosourea derivatives of sucrose as central nervous system anticancer agents” (J Med Chem, 1977)
# Columns and labels:
# [1] = Antitumor activity against mouse ependymoblastoma cells allografted in […] mouse at 50 mg/kg, ip administered from day 1 to day 5 relative to control; format: functional; conditions: route intraperitoneal
# L1210 [2] = test: Antitumor activity against mouse L1210 cells allografted in CDF1 mouse at 200 mg/kg, ip administered from day 1 to day 9 relative to control; format: functional; conditions: route intraperitoneal
# L1210 [3] = test: Antitumor activity against mouse L1210 cells allografted in CDF1 mouse at 100 mg/kg, ip administered from day 1 to day 9 relative to control; format: functional; conditions: route intraperitoneal
# Mus musculus = test: Toxicity in […] mouse allografted with mouse ependymoblastoma cells at 400 mg/kg, ip administered from day 1 to day 5 relative to control; format: organism-based; set-up: dose 400 mg/kg, route intraperitoneal; conditions: in vivo
# [4] = Antitumor activity against mouse ependymoblastoma cells allografted in […] mouse at 200 mg/kg, ip administered from day 1 to day 5 relative to control; format: functional; conditions: route intraperitoneal
# [5] = Antitumor activity against mouse ependymoblastoma cells allografted in […] mouse at 100 mg/kg, ip administered from day 1 to day 5 relative to control; format: functional; conditions: route intraperitoneal
# L1210 [6] = test: Antitumor activity against mouse L1210 cells allografted in CDF1 mouse at 50 mg/kg, ip administered from day 1 to day 9 relative to control; format: functional; conditions: route intraperitoneal
# L1210 [7] = test: Antitumor activity against mouse L1210 cells allografted in CDF1 mouse at 29 mg/kg, ip administered from day 1 to day 9 relative to control; format: functional; conditions: route intraperitoneal
# [8] = Antitumor activity against mouse ependymoblastoma cells allografted in C57BL/6 mouse at 100 mg/kg, ip administered from day 1 to day 5 relative to control; format: functional; conditions: route intraperitoneal
# L1210 [9] = test: Antitumor activity against mouse L1210 cells allografted in CDF1 mouse at 66 mg/kg, ip administered from day 1 to day 9 relative to control; format: functional; conditions: route intraperitoneal
# [10] = Antitumor activity against mouse ependymoblastoma cells allografted in C57BL/6 mouse at 130 mg/kg, ip administered from day 1 to day 5 relative to control; format: functional; conditions: route intraperitoneal
# L1210 [11] = test: Antitumor activity against mouse L1210 cells allografted in CDF1 mouse at 44 mg/kg, ip administered from day 1 to day 9 relative to control; format: functional; conditions: route intraperitoneal
SMILES,T/C [1] [%],T/C (L1210 [2]) [%],T/C (L1210 [3]) [%],Activity (Mus musculus),T/C [4] [%],T/C [5] [%],T/C (L1210 [6]) [%],T/C (L1210 [7]) [%],T/C [8] [%],T/C (L1210 [9]) [%],T/C [10] [%],T/C (L1210 [11]) [%]
CN(N=O)C(=O)NC[C@H]1O[C@@](CO)(O[C@H]2O[C@H](CNC(=O)N(C)N=O)[C@@H](O)[C@H](O)[C@H]2O)[C@@H](O)[C@@H]1O,111,137,129,Toxic,148,97,107,,,,,
CN(N=O)C(=O)NC[C@H]1O[C@@](CNC(=O)N(C)N=O)(O[C@H]2O[C@H](CNC(=O)N(C)N=O)[C@@H](O)[C@H](O)[C@H]2O)[C@@H](O)[C@@H]1O,97,137,117,Non-toxic,133,120,110,,,,,
CC(=O)O[C@@H]1[C@@H](OC(C)=O)[C@@H](O[C@]2(CNC(=O)N(C)N=O)O[C@H](CNC(=O)N(C)N=O)[C@@H](OC(C)=O)[C@@H]2OC(C)=O)O[C@H](CNC(=O)N(C)N=O)[C@H]1OC(C)=O,,120,102,,,,104,,,,,
CN(N=O)C(=O)N[C@@H](C=O)[C@@H](O)[C@H](O)[C@H](O)CO [STREPTOZOCIN],,,107,,,,,117,144,109,127,137
CC(=O)OC[C@@]1(O[C@H]2O[C@H](CNC(=O)N(C)N=O)[C@@H](OC(C)=O)[C@H](OC(C)=O)[C@H]2OC(C)=O)O[C@H](CNC(=O)N(C)N=O)[C@@H](OC(C)=O)[C@@H]1OC(C)=O,,119,105,,,,109,,,,,
